In patent US20090215783A1, “COMPOSITION FOR INDUCTION OR INHIBITION OF STEM CELL DIFFERENTIATION” (CHOONGWAE PHARMA CORPORATION, priority 2006, published 2009):

Legend:
[1] = tested on: Mouse embryonic stem (ES) cells, TC1; test: Cardiomyogenesis modulating activity assay (alpha-MHC promoter EGFP, embryoid bodies, FACS/fluorescence microscopy); assay type: cell-based; conditions: embryoid bodies treated for 5 days, FACS
Method: a. Cell culture: Mouse embryonic stem (ES) cells, TC1 derived from 129/S6 strain were cultured on irradiated feeder layer in the culture medium which is high-glucose DMEM (Gibco) BRL, Germany) supplemented with 15% FBS (Hyclone), 0.1 mM beta-mercaptoethanol, […] sodium pyruvate, 1 mM L-glutamine and 1× non-essential amino acids.
b. Establishment of alpha-MHC stably transformed ES cell line: A construct (FIG. 8) containing 1.8 kb promoter sequence of the mouse alpha-MHC gene between EcoRI and SalI sites of pEGFP-1 (Clontech Laboratories, Inc, CA, USA) was linearized at XhoI site, and was introduced into mouse ES cells, TC1, using the Gene Pulser II (BioRad, MA). A selection medium containing G418 was applied for two weeks from 24 hours after electroporation. The selected ES cell clones were harvested and expanded on the feeder cell layer. The green fluorescence-expressing clones when differentiated into cardiomyocytes were used in this experiment.
c. Cardiomyogenesis modulating activity assay: Embryoid body (EB) was formed by hanging drop culture using about a number of 600 (six hundred) ES cells for two days and it was further expanded by culturing in suspension condition on a Petri-dish for another two days. Then each EB was plated on a well of 96 well culture plates. Test compounds were dissolved in DMSO and diluted with culture media (final 0.05% DMSO) and EB was treated with test compound for 5 days. Culture medium was changed every three days after plating. Expression level of EGFP was measured with FACS (Beckman). For FACS analysis, differentiating cells were dissociated with trypsin. For the determination of the extent of differentiation, EB was observed and photographed with an inverted fluorescence microscope (Zeiss, Germany). Number of beating EBs was counted under the microscope and recorded once daily.

[2] = tested on: human bone marrow derived-mesenchymal stem cells (hBMMSC); test: Osteogenesis modulating activity assay by test compound alone (ALP activity); assay type: cell-based; conditions: Homo sapiens, 168 h; hBMMSC, 20 μM test compound alone, six to seven days; read-out: Osteogenesis: fold change of ALP activity compared with DMSO control
Method: Cell culture: Human bone marrow derived-mesenchymal stem cells (hBMMSC) were isolated from normal subjects.
Osteogenesis modulating activity assay by test compound alone: hBMMSC were cultivated in the culture medium and cells were seeded into 96-well culture plates and test compounds were dissolved in DMSO and diluted with culture media (final 0.01% DMSO) and added into the media (final concentration of test compound was 20 μM) and cultured in the CO2 incubator (37° C., 5% CO2). Culture medium was changed every two days with fresh one and compound was treated again whenever medium was changed. Six to seven days after incubation, Alkaline phosphatase activity of cell lysates was measured by colorimetry. For the determination of mineralization within the cells, Von Kossa staining or Alizarin Red S assay was performed 10-14 days after incubation.

| Compound | Cardiomyogenesis: fold change of EGFP expression level compared with DMSO control [1] [fold] | fold induction at 20 µM [2] |
| --- | --- | --- |
| CN1C(=O)N2C(CN(CCSCc3ccccc3)C(=O)[C@@H]2Cc2ccc(O)cc2)N1C(=O)NCc1ccccc1 (stereo partly drawn) [#108] | 1.19 | 0.94 |
| CN1CC(=O)N2[C@@H](CC3CCCCC3)C(=O)N(CCCc3ccccc3)C[C@@H]2N1C(=O)NCc1ccccc1 [#28] | 1.23 | 0.26 |
| O=C1[C@H](Cc2ccc(Cl)cc2)N2C(=O)CN(Cc3ccc(F)cc3)N(C(=O)NCc3ccccc3)[C@H]2CN1Cc1cccc(C(F)(F)F)c1 [#72] | 1.76 | 0.84 |
| NC(=O)CC1C(=O)N(CCSCc2ccccc2)CC2N1C(=O)CN(Cc1ccc(F)cc1)N2C(=O)NCc1ccccc1 (stereo not drawn) [#110] | 1.18 | 0.63 |
| CCCCN1C[C@H]2N(C(=O)CN(C)N2C(=O)NCc2ccccc2)[C@@H](Cc2ccc(Cl)cc2)C1=O [#30] | 1.75 | 1.12 |
| CC(C)CN1C[C@H]2N(C(=O)CN(C)N2C(=O)NCc2ccccc2)[C@@H](CCC(=O)O)C1=O [#17] | 2.52 | 1.29 |
| CN1CC(=O)N2C(CN(Cc3ccc(Cl)c(Cl)c3)C(=O)[C@H]2Cc2ccc(O)cc2)N1C(=O)NCc1cccnc1 (stereo partly drawn) [#6] | 0.47 | 0.51 |
| CCCCNC(=O)N1C2CN(CCCCc3ccccc3)C(=O)C(CC(=O)O)N2C(=O)CN1Cc1cccc(F)c1 (stereo not drawn) [#43] | 1.17 | 0.33 |
| C=CCN1CC(=O)N2C(CN(CCc3ccccc3)C(=O)[C@@H]2CCC(=O)O)N1C(=O)NCc1ccccc1 (stereo partly drawn) [#89] | 1.26 | 1.16 |
| C#CCNC(=O)N1[C@H]2CN(Cc3cccc4ccccc34)C(=O)[C@H](Cc3ccc(O)cc3)N2C(=O)CN1C [#12] | 1.27 | 0.76 |
| COc1ccc(C[C@H]2C(=O)N(CCc3ccccc3)C[C@H]3N2C(=O)CN(C)N3C(=O)NCc2ccccc2)cc1 [#34] | 1.71 | 1.03 |
| CCCCNC(=O)N1[C@H]2CN(CCCCc3ccccc3)C(=O)[C@H](CCC(=O)O)N2C(=O)CN1Cc1cccc(F)c1 [#44] | 1.98 | 0.56 |
| CC(C)C[C@@H]1C(=O)N(CCc2ccc(Cl)cc2)CC2N1C(=O)CN(Cc1ccccc1)N2C(=O)NCc1ccccc1 (stereo partly drawn) [#74] | 1.59 | 0.54 |
| COc1ccc(CN2CC3N(C(=O)CN(C)N3C(=O)NCc3ccccc3)C(Cc3ccc(O)cc3)C2=O)cc1 (stereo not drawn) [#19] | 3.03 | 0.7 |
| C=CCN1CC(=O)N2C(CC(=O)O)C(=O)N(CCc3ccccc3)C[C@@H]2N1C(=O)NCc1ccccc1 (stereo partly drawn) [#88] | 1.34 | 0.64 |
| CC(C)C[C@H]1C(=O)N(CCOc2ccccc2N)CC2N1C(=O)CN(C)N2C(=O)NCc1ccccc1 (stereo partly drawn) [#3] | 1.25 | 1.29 |
| CN1CC(=O)N2C(Cc3ccc(OCc4ccccc4)cc3)C(=O)N(CCCc3ccccc3)CC2N1C(=O)NCc1ccccc1 (stereo not drawn) [#27] | 0.52 | 0.96 |
| CN1CC(=O)N2[C@@H](CC3CCCCC3)C(=O)N(CCc3ccccc3)C[C@@H]2N1C(=O)NCc1ccccc1 [#37] | 0.98 | 0.95 |
| CN1CC(=O)N2[C@@H](Cc3ccc(Cl)cc3)C(=O)N(CCCc3ccccc3)C[C@@H]2N1C(=O)NCc1ccccc1 [#29] | 1.71 | 0.91 |
| CC(C)CN1C[C@H]2N(C(=O)CN(C)N2C(=O)NCc2ccccc2)[C@@H](CC(=O)O)C1=O [#16] | 1.42 | 0.97 |

| Compound | Cardiomyogenesis: fold change of EGFP expression level compared with DMSO control [1] [fold] | fold induction at 20 µM [2] |
| --- | --- | --- |
| C=CCN1CC(=O)N2[C@@H](c3ccccc3)C(=O)N(CCc3ccccc3)C[C@@H]2N1C(=O)NCc1ccccc1 [#90] | 2.10 | 0.51 |
| CCCN1CC(=O)N2C(CN(CCC(C)C)C(=O)[C@@H]2CCC(=O)O)N1C(=O)NCc1ccccc1 (stereo partly drawn) [#95] | 2.22 | 1.19 |
| CN1CC(=O)N2[C@H](Cc3ccccc3)C(=O)N(CCc3ccccc3)C[C@H]2N1C(=O)NCc1ccccc1 [#31] | 1.10 | 1 |
| CCCCNC(=O)N1[C@H]2CN(CCCCc3ccccc3)C(=O)[C@H](CCC)N2C(=O)CN1Cc1cccc(F)c1 [#42] | 1.87 | 0.31 |
| CCC(CC)N1CC2N(C(=O)N(C)N2C(=O)NCc2ccccc2)[C@@H](Cc2ccc(O)cc2)C1=O (stereo partly drawn) [#104] | 0.62 | 1.42 |
| CCCN1CC(=O)N2C(CC(=O)O)C(=O)N(CCC(C)C)C[C@H]2N1C(=O)NCc1ccccc1 (stereo partly drawn) [#94] | 3.02 | 0.69 |
| O=C1[C@H](CC2CCCCC2)N2C(=O)CN(Cc3ccc(F)cc3)N(C(=O)NCc3ccccc3)[C@H]2CN1Cc1cccc(C(F)(F)F)c1 [#69] | 1.69 | 0.71 |
| CN1CC(=O)N2[C@@H](Cc3ccc(F)cc3)C(=O)N(CCc3ccccc3)C[C@@H]2N1C(=O)NCc1ccccc1 [#38] | 0.69 | 0.48 |
| O=C1[C@H](COCc2ccccc2)N2C(=O)CN(Cc3ccccc3)N(C(=O)NCc3ccccc3)[C@H]2CN1CCc1ccc(Cl)cc1 [#73] | 1.57 | 0.64 |
| CC(C)C[C@H]1C(=O)N(CC(=O)N2c3ccccc3Oc3ccccc32)C[C@H]2N1C(=O)CN(C)N2C(=O)NCc1ccccc1 [#5] | 0.36 | 0.29 |
| C=CCN1CC(=O)N2[C@@H](Cc3ccc(C)cc3)C(=O)N(Cc3ccc(F)cc3)C[C@@H]2N1C(=O)NCc1ccccc1 [#84] | 1.32 | 0.69 |
| CN1CC(=O)N2[C@@H](CCc3ccccc3)C(=O)N(CCc3ccccc3)C[C@@H]2N1C(=O)NCc1ccccc1 [#33] | 0.28 | 1.85 |
| CCCC[C@H]1C(=O)N(CCc2ccc(OC)c(OC)c2)C[C@H]2N1C(=O)N(C)N2C(=O)NCc1ccccc1 [#102] | 1.01 | 1.61 |
| COc1ccc(C[C@H]2C(=O)N(CCc3ccc(Cl)cc3)C[C@H]3N2C(=O)CN(Cc2ccccc2)N3C(=O)NCc2ccccc2)cc1 [#76] | 1.24 | 1.58 |
| C=CCOC(=O)NCCC[C@@H]1C(=O)N(CCc2ccccc2)C[C@H]2N1C(=O)CN(CC=C)N2C(=O)NCc1ccccc1 [#91] | 2.23 | 1.13 |
| CN1C(=O)N2[C@@H](Cc3ccc(O)cc3)C(=O)N(CCc3ccc(F)cc3)C[C@@H]2N1C(=O)NCc1ccccc1 [#99] | 1.74 | 0.46 |
| CCCCOCCCN1C[C@H]2N(C(=O)N(C)N2C(=O)NCc2ccccc2)[C@@H](CCSC)C1=O [#107] | 0.59 | 0.66 |
| CCCCNC(=O)N1C2CN(CCc3ccc(OC)cc3)C(=O)[C@H](CC(=O)O)N2C(=O)CN1Cc1ccc(C)cc1 (stereo partly drawn) [#98] | 3.34 | 0.26 |
| CN1CC(=O)N2[C@@H](CN(Cc3cccc(Cl)c3)C(=O)[C@H]2c2ccc(O)cc2)N1C(=O)NCc1ccccc1 [#8] | 0.65 | 0.55 |
